In patent US7615366B2, “Bacillus amyloliquefaciens KTGB0202 and control method of plant pathogenic fungi using that” (KT & G Co., Ltd., priority 2003, dated 2009):

Legend:
cucumber powdery mildew = experiment: Control effect against cucumber powdery mildew; conditions: 4000-fold-diluted concentration (control chemical)
Description: Also, Trifumin® (Triflumizole) was used at a 4000-fold-diluted concentration, a recommended concentration for farmhouses.

melon powdery mildew = experiment: Control effect against melon powdery mildew; conditions: 4000-fold-diluted concentration (control chemicals)
Description: The bacteria culture was spread to melons with a powdery mildew incidence of about 10% under greenhouse conditions three times at one-week intervals, and after 7 days, the results were examined.
Trifumin® and Fenari® (Fenarimol) were used at a 4000-fold-diluted concentration, a recommended concentration for farmhouses.
The number of leaves with melon powdery mildew was counted before and after treatment so as to yield therapeutic effects.

CCCOC/C(=N\c1ccc(Cl)cc1C(F)(F)F)n1ccnc1 [Trifumin ® (Triflumizole), Triflumizole]
Control effect (%) (cucumber powdery mildew): 96.59%
Incidence (%) (cucumber powdery mildew): 3.41%
Number of infected leaves before treatment/number of infected leaves after treatment (melon powdery mildew): 10/0
Therapeutic effect (melon powdery mildew): 100

OC(c1ccc(Cl)cc1)(c1cncnc1)c1ccccc1Cl (stereo not drawn) [Fenari ® (Fenarimol), Fenarimol]
Number of infected leaves before treatment/number of infected leaves after treatment (melon powdery mildew): 9/6
Therapeutic effect (melon powdery mildew): 33.4
